# Literature values in publication PMC10644327, “A randomized, double‐blind phase 1b study evaluating the safety, tolerability, pharmacokinetics and pharmacodynamics of the NLRP3 inhibitor selnoflast in patients with moderate to severe active ulcerative colitis” (Clinical and Translational Medicine, 2023).
# Set-up: method as in earlier work
# Details: added to standard‐of‐care therapy, patients with acute severe UC; cited from earlier work
substance,measurement,value
anakinra,Clinical outcome,did not improve the clinical outcome
